Results as given in patent publication US11548868B2, “Heterocyclic compounds, compositions comprising heterocyclic compound, and methods of use thereof” (JS INNOPHARM (SHANGHAI) LTD, priority 2017, dated 2023).

What was measured:
Recombinant human IDO1 = Recombinant human IDO1 (Homo sapiens, UniProt P14902); assay: IDO1 Enzymatic Assay; details: recombinant human IDO1 40 nM, L-tryptophan 100 μM, 40 min room temperature, N′-formylkynurenine absorbance 321 nm; read-out: IDO1 biochemical activity*
Sequence of Recombinant human IDO1 (P14902 whole entry): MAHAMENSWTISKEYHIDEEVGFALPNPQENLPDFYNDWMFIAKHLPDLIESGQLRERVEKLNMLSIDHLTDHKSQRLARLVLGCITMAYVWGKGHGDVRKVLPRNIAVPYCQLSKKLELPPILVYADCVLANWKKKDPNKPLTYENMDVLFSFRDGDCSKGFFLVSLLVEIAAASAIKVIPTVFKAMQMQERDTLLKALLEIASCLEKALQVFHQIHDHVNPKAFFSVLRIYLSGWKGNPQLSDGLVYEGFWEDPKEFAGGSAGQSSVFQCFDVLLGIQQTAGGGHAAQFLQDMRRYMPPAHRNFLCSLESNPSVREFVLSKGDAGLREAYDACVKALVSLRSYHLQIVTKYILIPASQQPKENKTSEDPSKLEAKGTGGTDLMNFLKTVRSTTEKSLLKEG
Experimental: The IDO1 biochemical inhibitory activity is determined by measuring the decrease in N′-formylkynurenine from tryptophan catalyzed by IDO1 enzyme. Recombinant human IDO1 (40 nM), L-tryptophan (100 μM), L-ascorbic acid (20 mM), methylene Blue (20 μM), catalase (0.2 mg/mL), and serial dilutions of the test compounds in a total volume of […] containing DMSO (with final DMSO concentration of 0.5%) and a pH 7.5 buffer containing potassium phosphate (50 mM) were added into each well in a 96-well plate. After incubation at room temperature for 40 min, the absorbance of the reaction mixture was read at 321 nm to measure the formation of N′-formylkynurenine by SpectraMax microplate reader. Percent inhibition of the test compounds was determined by measuring the decrease in N′-formylkynurenine as compared to the control of DMSO vehicle, which was calculated by formula of (WC−WT)/WC, where WC is the mean absorbance of the control well minus blank well; WT is the mean absorbance of the test well minus the blank well. Data was analyzed by GraphPad Prism 5 and the IC50 values were obtained by non-linear regression.
The IC50 values of IDO1 biochemical activity for the examples disclosed herein are listed in Table 2, A: ≤0.1 μM; B: >0.10 μM and ≤0.5 μM; C: >0.5 μM and ≤1.0 μM; and D: >1.0 μM.

[1] = molecular target: T1, TDO2 in A172 cancer cells (Homo sapiens, UniProt P48775); assay: TDO2 Cellular Assay (kynurenine production in A172 cancer cells); type: cell-based; details: L-Trp 1 mM, 24 hours incubation, kynurenine at 490 nm
T1 construct: endogenous in cells; host or cells: A172 cancer cells
T1 sequence (P48775 whole entry): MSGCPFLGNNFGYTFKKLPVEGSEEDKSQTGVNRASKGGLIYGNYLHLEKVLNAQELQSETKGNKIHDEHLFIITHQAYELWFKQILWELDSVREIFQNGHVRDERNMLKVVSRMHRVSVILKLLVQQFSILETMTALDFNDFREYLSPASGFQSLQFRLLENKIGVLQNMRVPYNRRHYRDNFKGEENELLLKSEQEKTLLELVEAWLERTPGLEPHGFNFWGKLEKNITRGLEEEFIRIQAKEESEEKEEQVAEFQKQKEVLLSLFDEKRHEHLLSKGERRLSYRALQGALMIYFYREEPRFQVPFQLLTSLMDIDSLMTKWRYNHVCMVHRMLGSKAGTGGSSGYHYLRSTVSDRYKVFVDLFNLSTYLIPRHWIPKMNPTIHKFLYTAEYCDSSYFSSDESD
Procedure, shortened: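 Kynurenine output of A172 cells was read colorimetrically at 490 nm (Ehrlich reagent after TCA hydrolysis at 50 °C). Cells had 1 mM L-Trp plus compound at 0–25 μM in 0.25% DMSO for 24 h; IC50 values were fitted non-linearly from percent inhibition relative to vehicle.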

[2] = molecular target: T2, IDO1 in Hela cancer cells (Homo sapiens, UniProt P14902); assay: IDO1 Cellular Assay (kynurenine production in IFN-γ stimulated Hela cancer cells); type: cell-based; details: human IFN-γ 50 ng/mL, 48 hours incubation, kynurenine at 490 nm
T2 construct: endogenous in cells; host or cells: Hela cancer cells stimulated with human IFN-γ
T2 sequence (P14902 whole entry): as the sequence (P14902 whole entry) above
Procedure, shortened: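 HeLa cells stimulated with 50 ng/mL IFN-γ (final) and treated 48 h with compound (0–25 μM final, 0.25% DMSO). Supernatant kynurenine measured after TCA hydrolysis and p-dimethylaminobenzaldehyde reaction at 490 nm; inhibition vs DMSO control, IC50 by non-linear regression.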

Row | Structure (SMILES) | IC50 (Recombinant human IDO1) [nM] | IC50 [1] [nM] | IC50 [2] [nM]
1 | O[C@@]1(c2cc(Cl)cc3cn[nH]c23)C[C@H]2C[C@H]2C1 [Example 118, (1R,3r,5S)-3-(5-chloro-1H-indazol-7-yl)bicyclo[3.1.0]hexan-3-ol] |  | 1000 to 5000 | > 5000
2 | O=C(N[C@H]1[C@@H]2C[C@@](O)(c3cc(Cl)cc4[nH]ncc34)C[C@@H]21)c1cccc(Br)c1 [Example 146, 3-bromo-N-((1R,3r,5S,6r)-3-(6-chloro-1H-indazol-4-yl)-3-hydroxybicyclo[3.1.0]hexan-6-yl)benzamide] |  | ≤ 500 | ≤ 500
3 | N#Cc1cccc(C(=O)N[C@H]2[C@@H]3C[C@@](O)(c4cc(Cl)cc5[nH]ncc45)C[C@@H]32)c1 [Example 144, N-((1R,3r,5S,6r)-3-(6-chloro-1H-indazol-4-yl)-3-hydroxybicyclo[3.1.0]hexan-6-yl)-3-cyanobenzamide] |  | ≤ 500 | ≤ 500
4 | O=C(Nc1ccc(Cl)cc1)N[C@H]1[C@@H]2C[C@@](O)(c3cc(Cl)cc4[nH]ncc34)C[C@@H]21 [Example 121, 1-((1R,3r,5S,6r)-3-(6-chloro-1H-indazol-4-yl)-3-hydroxybicyclo[3.1.0]hexan-6-yl)-3-(4-chlorophenyl)urea] |  | ≤ 500 | ≤ 500
5 | O=C(Nc1ccccc1)N[C@H]1[C@@H]2C[C@@](O)(c3cc(Cl)cc4[nH]ncc34)C[C@@H]21 [Example 115, 1-((1R,3r,5S,6r)-3-(6-chloro-1H-indazol-4-yl)-3-hydroxybicyclo[3.1.0]hexan-6-yl)-3-phenylurea] |  | ≤ 500 | 1000 to 5000
6 | O=C(N[C@H]1[C@@H]2C[C@@](O)(c3cc(Cl)cc4cn[nH]c34)C[C@@H]21)c1ccccc1 [Example 129, N-((1R,3r,5S,6r)-3-(5-chloro-1H-indazol-7-yl)-3-hydroxybicyclo[3.1.0]hexan-6-yl)benzamide] |  | 1000 to 5000 | 1000 to 5000
7 | O=C(NC1CC1)N[C@H]1[C@@H]2C[C@@](O)(c3cc(Cl)cc4[nH]ncc34)C[C@@H]21 [Example 120, 1-((1R,3r,5S,6r)-3-(6-chloro-1H-indazol-4-yl)-3-hydroxybicyclo[3.1.0]hexan-6-yl)-3-cyclopropylurea] |  | ≤ 500 | > 5000
8 | CS(=O)(=O)Nc1cccc(C(=O)N[C@H]2[C@@H]3C[C@@](O)(c4cc(Cl)cc5[nH]ncc45)C[C@@H]32)c1 [Example 141, N-((1R,3r,5S,6r)-3-(6-chloro-1H-indazol-4-yl)-3-hydroxybicyclo[3.1.0]hexan-6-yl)-3-(methylsulfonamido)benzamide] |  | 500 to 1000 | > 5000
9 | CC(=O)N[C@H]1[C@@H]2C[C@@](O)(c3cc(Cl)cc4cn[nH]c34)C[C@@H]21 [Example 108, N-((1R,3r,5S,6r)-3-(5-chloro-1H-indazol-7-yl)-3-hydroxybicyclo[3.1.0]hexan-6-yl)acetamide] |  | ≤ 500 | > 5000
10 | O=C(N[C@H]1[C@@H]2C[C@@](O)(c3cc(Cl)cc4[nH]ncc34)C[C@@H]21)c1cccc(OC(F)(F)F)c1 [Example 145, N-((1R,3r,5S,6r)-3-(6-chloro-1H-indazol-4-yl)-3-hydroxybicyclo[3.1.0]hexan-6-yl)-3-(trifluoromethoxy)benzamide] |  | ≤ 500 | ≤ 500
11 | N#Cc1cncc(C(=O)N[C@H]2[C@@H]3C[C@@](O)(c4cc(Cl)cc5[nH]ncc45)C[C@@H]32)c1 [Example 181, N-((1R,3r,5S,6r)-3-(6-chloro-1H-indazol-4-yl)-3-hydroxybicyclo[3.1.0]hexan-6-yl)-5-cyanonicotinamide] |  | ≤ 500 | ≤ 500
12 | N#Cc1ccc(S(=O)(=O)N2C[C@@H]3C[C@@](O)(c4cc(Cl)cc5[nH]ncc45)C[C@@H]3C2)cc1 [Example 39, 4-(((3aR,5r,6aS)-5-(6-chloro-1H-indazol-4-yl)-5-hydroxyhexahydrocyclopenta[c]pyrrol-2(1H)-yl)sulfonyl)benzonitrile] |  | ≤ 500 | > 5000
13 | O=C(N[C@H]1[C@@H]2C[C@@](O)(c3cc(Cl)cc4[nH]ncc34)C[C@@H]21)c1cccnc1 [Example 148, N-((1R,3r,5S,6r)-3-(6-chloro-1H-indazol-4-yl)-3-hydroxybicyclo[3.1.0]hexan-6-yl)nicotinamide] |  | ≤ 500 | ≤ 500
14 | O=C(N[C@H]1[C@@H]2C[C@@](O)(c3cc(Cl)cc4[nH]ncc34)C[C@@H]21)c1ccc(F)c(C(F)(F)F)c1 [Example 172, N-((1R,3r,5S,6r)-3-(6-chloro-1H-indazol-4-yl)-3-hydroxybicyclo[3.1.0]hexan-6-yl)-4-fluoro-3-(trifluoromethyl)benzamide] |  | ≤ 500 | ≤ 500
15 | CNC(=O)N[C@H]1[C@@H]2C[C@@](O)(c3cc(Cl)cc4cn[nH]c34)C[C@@H]21 [Example 133, 1-((1R,3r,5S,6r)-3-(5-chloro-1H-indazol-7-yl)-3-hydroxybicyclo[3.1.0]hexan-6-yl)-3-methylurea] |  | 1000 to 5000 | > 5000
16 | O=C(Nc1ccccc1)N[C@H]1[C@@H]2C[C@@](O)(c3cc(Cl)cc4cn[nH]c34)C[C@@H]21 [Example 132, 1-((1R,3r,5S,6r)-3-(5-chloro-1H-indazol-7-yl)-3-hydroxybicyclo[3.1.0]hexan-6-yl)-3-phenylurea] |  | 500 to 1000 | 1000 to 5000
17 | CS(=O)(=O)N[C@H]1C[C@@H]2C[C@@](O)(c3cc(Cl)cc4[nH]ncc34)C[C@@H]2C1 [Example 3, N-((2r,3aR,5r,6aS)-5-(6-chloro-1H-indazol-4-yl)-5-hydroxyoctahydropentalen-2-yl)methanesulfonamide] |  | ≤ 500 | > 5000

Further lines, results first:

Row | IC50 (Recombinant human IDO1) [nM] | IC50 [1] [nM] | IC50 [2] [nM] | Structure (SMILES)
18 | > 1000 | 500 to 1000 |  | CS(=O)(=O)N1CCCC2CN(c3cc(Cl)cc4[nH]ncc34)CC21 (centres unmarked) [Example 13, 6-chloro-4-(1-(methylsulfonyl)hexahydro-1H-pyrrolo[3,4-b]pyridin-6(2H)-yl)-1H-indazole]
19 | > 1000 | 1000 to 5000 |  | CC(=O)N[C@@H]1[C@@H]2CN(c3cc(Cl)cc4[nH]ncc34)C[C@@H]21 [Example 21, N-((1R,5S,6r)-3-(6-chloro-1H-indazol-4-yl)-3-azabicyclo[3.1.0]hexan-6-yl)acetamide]
20 |  | > 5000 | > 5000 | O=C(c1ccccc1)N1C[C@@H]2C[C@@](O)(c3cc(Cl)cc4cn[nH]c34)C[C@@H]2C1 [Example 98, ((3aR,5r,6aS)-5-(5-chloro-1H-indazol-7-yl)-5-hydroxyhexahydrocyclopenta[c]pyrrol-2(1H)-yl)(phenyl)methanone]
21 |  | 1000 to 5000 | > 5000 | CC(=O)N1C[C@@H]2CN(c3cc(Cl)cn4cncc34)C[C@@H]2C1(C)C (racemic) [Example 41, Racemic-1-((3aS,6aR)-5-(6-chloroimidazo[1,5-a]pyridin-8-yl)-1,1-dimethylhexahydropyrrolo[3,4-c]pyrrol-2(1H)-yl)ethanone]
22 |  | > 5000 | > 5000 | CC(=O)N1C[C@@H]2C[C@@](O)(c3c(Cl)ccc4cncn34)C[C@@H]2C1 [Example 7, 1-((3aR,5r,6aS)-5-(6-chloroimidazo[1,5-a]pyridin-5-yl)-5-hydroxyhexahydrocyclopenta[c]pyrrol-2(1H)-yl)ethanone]
23 |  | > 5000 | > 5000 | CC(=O)N1C[C@@H]2CN(c3c(C(F)(F)F)ccc4cncn34)C[C@@H]2C1(C)C (racemic) [Example 47, Racemic-1-((3aS,6aR)-1,1-dimethyl-5-(6-(trifluoromethyl)imidazo[1,5-a]pyridin-5-yl)hexahydropyrrolo[3,4-c]pyrrol-2(1H)-yl)ethanone]
24 |  | 1000 to 5000 | > 5000 | O=C(C1CC1)N1C[C@@H]2C[C@@](O)(c3cc(Cl)cc4cn[nH]c34)C[C@@H]2C1 [Example 99, ((3aR,5r,6aS)-5-(5-chloro-1H-indazol-7-yl)-5-hydroxyhexahydrocyclopenta[c]pyrrol-2(1H)-yl)(cyclopropyl)methanone]
25 |  | > 5000 | > 5000 | CC1(C)[C@H]2CN(c3cc(Cl)cc4cncn34)C[C@H]2CN1S(C)(=O)=O (racemic) [Example 44, Racemic-7-chloro-5-((3aR,6aS)-4,4-dimethyl-5-(methylsulfonyl)hexahydropyrrolo[3,4-c]pyrrol-2(1H)-yl)imidazo[1,5-a]pyridine]
